Patent publication US20030190370A1, “Antibacterial agents, and antibacterial and deodorizing solution comprising the same” (priority 2000, published 2003)

What was measured:
[1] = Investigation of discoloration resistance (UV exposure, judged by eye); type: physicochemical; details: in tap water, complexes diluted to 2% (10-40 ppm silver ion), silver compounds 40 ppm, UV 2 hr
[2] = test system: (Candida Albicans ATCC 11651); assay: Minimum growth inhibition concentration, test-tube dilution method; type: cell-based
Procedure: (§1) The minimum growth inhibition concentration was measured using test-tube dilution method in order to evaluate the antibacterial activity of the silver complexes obtained in Examples 1-5.

[3] = test system: Yeast (Trentopholia odorata); assay: as above; type: cell-based
Procedure: as §1

[4] = test system: Staphylococcus aureus ATCC 6538P; assay: as above; type: cell-based
Procedure: as §1

[5] = test system: E. coli O-157 (Escherichia coli ATCC 43895); assay: as above; type: cell-based; details: E. coli O-157 ATCC 43895
Procedure: as §1

[6] = test system: Staphylococcus aureus ATCC 25923; assay: as above; type: cell-based
Procedure: as §1

[7] = test system: Trichophyton rubrum ATCC 28188; assay: as above; type: cell-based
Procedure: as §1

[8] = test system: E. coli (Escherichia coli ATCC 25922); assay: as above; type: cell-based; details: E. coli ATCC 25922
Procedure: as §1

## Silver-diethanolamine Complex [Example 5]
[1]
  Discoloration: 3
[2]
  Minimum Growth Inhibition Concentration: 1 ppm
[3]
  Minimum Growth Inhibition Concentration: <1 ppm
[4]
  Minimum Growth Inhibition Concentration: 7 ppm
[5]
  Minimum Growth Inhibition Concentration: 3 ppm
[6]
  Minimum Growth Inhibition Concentration: 6 ppm
[7]
  Minimum Growth Inhibition Concentration: 2 ppm
[8]
  Minimum Growth Inhibition Concentration: 1 ppm

## Silver-triethanolamine Complex [Example 4]
[1]
  Discoloration: 3
[2]
  Minimum Growth Inhibition Concentration: 1 ppm
[3]
  Minimum Growth Inhibition Concentration: <1 ppm
[4]
  Minimum Growth Inhibition Concentration: 5 ppm
[5]
  Minimum Growth Inhibition Concentration: 3 ppm
[6]
  Minimum Growth Inhibition Concentration: 5 ppm
[7]
  Minimum Growth Inhibition Concentration: 2 ppm
[8]
  Minimum Growth Inhibition Concentration: 1 ppm

## O=[N+]([O-])[O-].[Ag+] [Silver nitrate solution, silver nitrate, reference compound]
[1]
  Discoloration: 1

## O=C([O-])c1ccccc1.[Ag+] [Silver benzoate solution, silver beiizoate, reference compound]
[1]
  Discoloration: 1
